Assay results reported in patent US4973576A, “Bisphophonic acid derivatives and pharmaceutical compositions containing the same” (Yamanouchi Pharmaceutical Co., Ltd., priority 1987, dated 1990).
Several values for one entry are separate records, joined by “and”; a condition that tells them apart may be missing. Identical values can stand only once.

Columns and labels:
[1] = tested on: hypercalcemia induced by administration of parathyroid hormone (PTH); assay: Inhibitory effect on hypercalcemia induced by PTH in rats (serum Ca++); type: in vivo, male Wistar rats; settings: mean ± S.E.
Method: Rats of hypercalcemia induced by administration of parathyroid hormone (hereinafter referred to as "PTH") were used, and the decrement of the serum calcium amount by administration of the compound was measured.
30 μg/kg of human 1-34 PTH (manufactured by Peptide Laboratory) which was dissolved in a 0.1% BSA (bovine serum albumin)-containing physiological saline (content of the PTH is 6 μg/ml) was intravenously injected in an amount of 30 μg/kg (5 ml/kg as the solution) to 5-week male Wistar rats which had been fasting for 20 hours. Only 0.1% BSA-containing physiological saline was injected to the normal control group in the same manner. 45 minutes after the PTH injection, the rats were etherized and then subjected to celiotomy, whereby the blood was collected from the abdominal cava with a vacuum blood-collecting tube. The blood collected was immediately centrifuged by 3000 rpm, at 4° C. for 10 minutes to isolate the serum. The ionized calcium (Ca^++) concentration in the serum was immediately measured with a Ca^++ meter (Sera 250, manufactured by Horiba Manufacturing Co.).
The compounds of the present invention were dissolved using sodium hydroxide and hydrochloric acid, in physiological saline (pH 7.4), for subcutaneous administration, in such amounts that the dose amounted to 2 ml/kg, and for oral administration, in distilled water (pH 7.4) so that the dose amounted to 5 ml/kg. They were administered 24 or 72 hours before the PTH injection. A physiological saline or a distilled water was administered to the normal control group and the control group, in the same manner. Salmon calcitonin (SCT, manufactured by Armour Co.) was dissolved in physiological saline so that the dose amounted to 2 ml/kg, and then subcutaneously administered 30 minutes before the PTH injection.
The results for each group were expressed in terms of mean±S.E. (standard error) and comparison was made among the groups by testing by one-way analysis of variance. The significance level was taken at 5%.

adjuvant arthritis [2] = assay: Experiment (3)-I: therapeutic effect on adjuvant arthritis in rats; type: in vivo, male Lewis rats; settings: po
Method: (§1) Specifically, for investigation of the anti-arthritic effect, experimental models of adjuvant arthritis which is resemble to rheumatoid arthritis in human were used in two test methods. In one method to test the therapeutic effect of the compounds, the compounds to be tested were administered to the animals already having the adjuvant arthritis. In the other method to test the prophylactic effect of the compounds, these were administered after the adjuvant administration, and the expression and progress of the resulting arthritis, if any, was observed.
0.1 ml of a suspension of dry dead cells of Mycobacterium butyricum as suspended in liquid paraffin in a proportion of 6 mg/ml was subcutaneously injected to male Lewis rats (7-week) in the tail. After 17 or 18 days, the thickness of the both hind paws was measured. One group comprising six rats in which the arthritis was noticeably observed was isolated. After the grouping day, the compound to be tested was subcutaneously or orally administered once a day for 14 days to the rats. Next day after the last administration, the thickness of the soles of the both hind legs was again measured.
(§2) For the Experiments (3)-I and (3)-II, the compounds of the present invention were dissolved, using sodium hydroxide and hydrochloric acid in physiological saline (pH 7.4), for subcutaneous administration, in such amount that the dose amounted to 2 ml/kg, and for oral administration, in distilled water (pH 7.4) so that the dose amounted to 5 ml/kg; and indometacin (as comparative drug) was suspended in 0.5% methyl cellulose solution so that the dose amounted to 5 ml/kg. Each rat was weighed at the first day of starting the administration of the compound to be tested and at the last day of the administration of the compound, and the difference of the weight there between (ΔB.W.) was obtained.
(§3) The results for each group were expressed in terms of mean ±S.E. (standard error) and comparison was made among the groups by testing by one-way analysis of variance. The significance level was taken at 5%.

[3] = tested on: immobilization-induced atrophy of bone; assay: Inhibition of bone resorption: immobilization-induced (neurectomy) atrophy of bone in rats; type: in vivo, Wistar rats; settings: for Left humerus Ashed weight / Left humerus Ashed weight / Dry weight / Left humerus Dry weight: 2 weeks
adjuvant arthritis [4] = assay: Experiment (3)-II: prophylactic effect on adjuvant arthritis in rats; type: in vivo, male Lewis rats; settings: po, 1 mg/kg once a day 21 days
Method: as §1
0.05 ml of the suspension of dry dead bacilli of Mycobacterium butyricum as suspended in liquid paraffin in a proportion of 6 mg/ml was subcutaneously injected to male Lewis rats (6 to 7-week) in the left hind paw. After the adjuvant injection, the compound to be tested was administered to the rats once a day for 21 days. Next day after the last administration, the thickness of the both hind paws of the rats was measured.
as §2, §3

[5] = sc, 0.1 mg/kg, 72 hours before PTH injection
[6] = sc, 0.3 mg/kg, 72 hours before PTH injection
[7] = sc, 1.0 mg/kg, 72 hours before PTH injection
[8] = oral, 30 mg/kg, 72 hours before PTH injection
[9] = oral, 100 mg/kg, 72 hours before PTH injection
[10] = sc, 30 mg/kg, 24 hours before PTH injection
[11] = sc, 0.03 mg/kg, 72 hours before PTH injection
[12] = sc, 0.01 mg/kg, 72 hours before PTH injection
[13] = 1 mg/kg once a day 14 days, 1 mg/kg

O=P(O)(O)C(Nc1cc(/C=C/c2ccccc2)on1)P(=O)(O)O [Example 32]
Serum Ca++ [1, 5]: 1.41 ± 0.02 m mole/liter | Serum Ca++ [1, 6]: 1.27 ± 0.02 m mole/liter

CC(O)(P(=O)(O)O)P(=O)(O)O [Etidronate, 1-hydroxyethylidene-1,1-bisphosphonic acid, reference compound]
Serum Ca++ ([1]; sc, 10 mg/kg, 72 hours before PTH injection): 1.44 ± 0.01 m mole/liter | Serum Ca++ ([1]; sc, 30 mg/kg, 72 hours before PTH injection): 1.40 ± 0.01 m mole/liter

CC(C)(C)c1cc(NC(P(=O)(O)O)P(=O)(O)O)no1 [Known Compound (note-1), [(5t-butyl-3-isoxazolyl)amino]methylenebis(phosphonic acid), reference compound]
Serum Ca++ [1, 6]: 1.51 ± 0.03 m mole/liter | Serum Ca++ [1, 7]: 1.43 ± 0.02 m mole/liter

CCCCc1cc(NC(P(=O)(O)O)P(=O)(O)O)no1 [Example 28, [(5-n-butyl-3-isoxazolyl)amino]methylene-bis(phosphonic acid)]
Serum Ca++ [1, 8]: 1.46 ± 0.02 m mole/liter | Serum Ca++ [1, 9]: 1.31 ± 0.04 m mole/liter | Serum Ca++ [1, 5]: 1.36 ± 0.01 m mole/liter | Serum Ca++ [1, 6]: 1.18 ± 0.02 m mole/liter

CC(C)CCc1cc(NC(P(=O)(O)O)P(=O)(O)O)no1 [Example 25]
Serum Ca++ [1, 5]: 1.39 ± 0.02 m mole/liter | Serum Ca++ [1, 7]: 1.36 ± 0.02 m mole/liter

CCOP(=O)(O)C(Nc1cc(C)on1)P(=O)(O)O (stereo not drawn) [Example 14, ethyl [(5-methyl-3-isoxazolyl)amino]methylene-bis(phosphonate)]
Serum Ca++ [1, 10]: 1.45 ± 0.02 m mole/liter

O=P(O)(O)C(Nc1cc(C2CC2)on1)P(=O)(O)O [Example 6, [(5-cyclopropyl-3-isoxazolyl)-amino]-methylene-bis(phosphonic acid)]
Serum Ca++ [1, 5]: 1.42 ± 0.02 m mole/liter | Serum Ca++ [1, 6]: 1.25 ± 0.02 m mole/liter

CC(=O)N(c1cc(C)on1)C(P(=O)(O)O)P(=O)(O)O [Example 12, [N-acetyl(5-methyl-3-isoxazolyl)amino]methylene-bis(phosphonic acid)]
Serum Ca++ [1, 10]: 1.44 ± 0.02 m mole/liter

CCCCCCCc1cc(NC(P(=O)(O)O)P(=O)(O)O)no1 [Example 23]
Serum Ca++ [1, 8]: 1.49 ± 0.00 m mole/liter | Serum Ca++ [1, 9]: 1.41 ± 0.02 m mole/liter | Serum Ca++ [1, 11]: 1.40 ± 0.01 m mole/liter | Serum Ca++ [1, 5]: 1.33 ± 0.01 m mole/liter

CC(C)=CCCc1cc(NC(P(=O)(O)O)P(=O)(O)O)no1 [Example 31, [[5-(4-methyl-3-ene)pentyl-3-isoxazolyl]amino]methylene-bis(phosphonic acid)]
Serum Ca++ [1, 5]: 1.20 ± 0.01 m mole/liter | Serum Ca++ [1, 6]: 1.05 ± 0.03 m mole/liter

CCCCCCc1cc(NC(P(=O)(O)O)P(=O)(O)O)no1 [Example 22]
Serum Ca++ [1, 8]: 1.44 ± 0.02 m mole/liter | Serum Ca++ [1, 9]: 1.28 ± 0.04 m mole/liter | Serum Ca++ [1, 12]: 1.45 ± 0.01 m mole/liter | Serum Ca++ [1, 11]: 1.35 ± 0.01 m mole/liter | Serum Ca++ [1, 5]: 1.21 ± 0.02 m mole/liter

CC(C)c1cc(NC(P(=O)(O)O)P(=O)(O)O)no1 [Known Compound (note-2), [(5isopropyl-3-isoxazolyl)amino]methylenebis(phosphonic acid), reference compound]
Serum Ca++ [1, 5]: 1.58 ± 0.00 m mole/liter | Serum Ca++ [1, 6]: 1.49 ± 0.01 m mole/liter | Serum Ca++ [1, 7]: 1.39 ± 0.02 m mole/liter

CCCCCc1cc(NC(P(=O)(O)O)P(=O)(O)O)no1 [Example 21, [(5-n-pentyl-3-isoxazolyl)amino]methylene-bis(phosphonic acid)]
Thickness of Paw (average of right and left paws) (adjuvant arthritis [2]; 10 mg/kg once a day 14 days): 1317 ± 35 × 0.01 mm | ΔB.W. (adjuvant arthritis [2]; 10 mg/kg once a day 14 days): 29.7 ± 1.1 g | Thickness of Paw (average of right and left paws) (adjuvant arthritis [2]; 30 mg/kg once a day 14 days): 1321 ± 35 × 0.01 mm | ΔB.W. (adjuvant arthritis [2]; 30 mg/kg once a day 14 days): 30.0 ± 1.1 g | Thickness of Paw (average of right and left paws) (adjuvant arthritis [2]; 100 mg/kg once a day 14 days): 1119 ± 52 × 0.01 mm | ΔB.W. (adjuvant arthritis [2]; 100 mg/kg once a day 14 days): 29.7 ± 4.5 g | Serum Ca++ ([1]; oral, 10 mg/kg, 72 hours before PTH injection): 1.52 ± 0.02 m mole/liter | Serum Ca++ [1, 8]: 1.36 ± 0.06 m mole/liter | Serum Ca++ [1, 9]: 1.33 ± 0.04 m mole/liter | Serum Ca++ [1, 12]: 1.47 ± 0.02 m mole/liter | Serum Ca++ [1, 11]: 1.38 ± 0.01 m mole/liter | Serum Ca++ [1, 5]: 1.22 ± 0.003 m mole/liter | Left humerus Ashed weight ([3]; oral, 3 mg/kg): 64.4 ± 2.3 mg | Left humerus Ashed weight / Dry weight ([3]; oral, 3 mg/kg): 54.4 ± 0.2% | Left humerus Dry weight ([3]; oral, 3 mg/kg): 113.0 ± 3.1 mg | Left humerus Ashed weight ([3]; oral, 10 mg/kg): 67.0 ± 1.2 mg | Left humerus Ashed weight / Dry weight ([3]; oral, 10 mg/kg): 56.0 ± 0.4% | Left humerus Dry weight ([3]; oral, 10 mg/kg): 115.2 ± 4.0 mg | Left humerus Ashed weight ([3]; oral, 30 mg/kg): 65.7 ± 0.9 mg | Left humerus Ashed weight / Dry weight ([3]; oral, 30 mg/kg): 56.5 ± 0.2% | Left humerus Dry weight ([3]; oral, 30 mg/kg): 118.7 ± 2.0 mg | Left humerus Ashed weight ([3]; sc, 0.01 mg/kg): 65.7 ± 0.9 mg | Left humerus Ashed weight / Dry weight ([3]; sc, 0.01 mg/kg): 56.4 ± 0.2% | Left humerus Dry weight ([3]; sc, 0.01 mg/kg): 116.5 ± 1.5 mg | Left humerus Ashed weight ([3]; sc, 0.03 mg/kg): 73.6 ± 0.7 mg | Left humerus Ashed weight / Dry weight ([3]; sc, 0.03 mg/kg): 56.9 ± 0.2% | Left humerus Dry weight ([3]; sc, 0.03 mg/kg): 129.2 ± 1.0 mg | Left humerus Ashed weight ([3]; sc, 0.1 mg/kg): 72.8 ± 1.8 mg | Left humerus Ashed weight / Dry weight ([3]; sc, 0.1 mg/kg): 55.9 ± 0.4% | Left humerus Dry weight ([3]; sc, 0.1 mg/kg): 130.1 ± 3.2 mg

COc1ccc2c(c1)c(CC(=O)O)c(C)n2C(=O)c1ccc(Cl)cc1 [Indometacin, reference compound]
Thickness of Paw (average of right and left paws) (adjuvant arthritis [2]; [13]): 956 ± 32 × 0.01 mm and 1044 ± 46 × 0.01 mm and 931 ± 26 × 0.01 mm | ΔB.W. (adjuvant arthritis [2]; [13]): 67 ± 4 g and 51 ± 4 g and 58.2 ± 1.9 g | ΔB.W. (adjuvant arthritis [4]): 261 ± 7 g | Thickness of Paw, Left (adjuvant arthritis [4]; adjuvant-injected paw): 1096 ± 41 × 0.01 mm | Thickness of Paw, Right (adjuvant arthritis [4]; opposite paw): 1028 ± 47 × 0.01 mm

Cc1conc1NC(P(=O)(O)O)P(=O)(O)O [Manufacture Example 3, [(4-methyl-3-isoxazolyl)amino]methylene-bis(phosphonic acid)]
Serum Ca++ [1, 6]: 1.45 ± 0.01 m mole/liter | Serum Ca++ [1, 7]: 1.23 ± 0.05 m mole/liter

CCCc1cc(NC(P(=O)(O)O)P(=O)(O)O)no1 [Example 8]
Serum Ca++ [1, 8]: 1.48 ± 0.02 m mole/liter | Serum Ca++ [1, 9]: 1.35 ± 0.02 m mole/liter | Serum Ca++ [1, 5]: 1.41 ± 0.02 m mole/liter | Serum Ca++ [1, 6]: 1.27 ± 0.02 m mole/liter

CCc1cc(NC(P(=O)(O)O)P(=O)(O)O)no1 [Manufacture Example 2, [(5-ethyl-3-isoxazolyl)amino]methylene-bis(phosphonic acid)]
Serum Ca++ [1, 8]: 1.46 ± 0.02 m mole/liter | Serum Ca++ [1, 9]: 1.16 ± 0.07 m mole/liter | Serum Ca++ [1, 5]: 1.39 ± 0.02 m mole/liter | Serum Ca++ [1, 6]: 1.22 ± 0.02 m mole/liter | Serum Ca++ [1, 10]: 1.41 ± 0.02 m mole/liter | Difference of Bone Ash Content (b) ([3]; sc, 1.0 mg/kg once a day 14 days, nontreated minus treated humerus ashed weight): 3.0 ± 0.7 mg | Difference of Bone Weight (a) ([3]; sc, 1.0 mg/kg once a day 14 days, nontreated minus treated humerus dry weight): 4.8 ± 1.3 mg
